Laboratory results published in article PMC6009911, “Inhibition of human cytochromes P450 2A6 and 2A13 by flavonoids, acetylenic thiophenes and sesquiterpene lactones from Pluchea indica and Vernonia cinerea” (Journal of Enzyme Inhibition and Medicinal Chemistry, 2017).
Read-outs that look alike come from different tables or passages of the source. One block for each molecule: values may come before it.

Experiments:
[1] = target: T1, CYP2A6 (Homo sapiens, UniProt P11509); set-up: made in house; conditions: ref Prasopthum et al., 2015, cited from earlier work
T1 sequence (P11509 1-494): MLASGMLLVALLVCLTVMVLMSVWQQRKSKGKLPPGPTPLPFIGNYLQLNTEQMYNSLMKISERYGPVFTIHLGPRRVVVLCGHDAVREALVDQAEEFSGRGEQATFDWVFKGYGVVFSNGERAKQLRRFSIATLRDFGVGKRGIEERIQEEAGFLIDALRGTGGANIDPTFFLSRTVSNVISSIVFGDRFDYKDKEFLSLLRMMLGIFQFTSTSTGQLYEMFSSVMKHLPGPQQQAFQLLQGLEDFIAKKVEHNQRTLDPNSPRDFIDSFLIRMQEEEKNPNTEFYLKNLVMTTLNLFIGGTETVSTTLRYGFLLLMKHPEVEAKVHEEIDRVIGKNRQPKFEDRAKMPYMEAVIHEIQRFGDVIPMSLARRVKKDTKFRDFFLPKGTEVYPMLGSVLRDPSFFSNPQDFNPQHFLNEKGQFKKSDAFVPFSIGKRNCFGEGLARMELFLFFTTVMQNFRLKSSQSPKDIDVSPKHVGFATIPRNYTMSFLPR

[2] = target: T1, CYP2A6; set-up: made in house; method as in PMID 25857233; conditions: cited from earlier work
[3] = target: T2, CYP2A13 (Homo sapiens, UniProt Q16696); assay: Inhibition of CYP2A13-mediated coumarin 7-hydroxylation, enzymatic reconstitution assay; type: biochemical; conditions: for Ki: coumarin 0–40 µM
T2 construct: made in house
T2 sequence (Q16696 1-494): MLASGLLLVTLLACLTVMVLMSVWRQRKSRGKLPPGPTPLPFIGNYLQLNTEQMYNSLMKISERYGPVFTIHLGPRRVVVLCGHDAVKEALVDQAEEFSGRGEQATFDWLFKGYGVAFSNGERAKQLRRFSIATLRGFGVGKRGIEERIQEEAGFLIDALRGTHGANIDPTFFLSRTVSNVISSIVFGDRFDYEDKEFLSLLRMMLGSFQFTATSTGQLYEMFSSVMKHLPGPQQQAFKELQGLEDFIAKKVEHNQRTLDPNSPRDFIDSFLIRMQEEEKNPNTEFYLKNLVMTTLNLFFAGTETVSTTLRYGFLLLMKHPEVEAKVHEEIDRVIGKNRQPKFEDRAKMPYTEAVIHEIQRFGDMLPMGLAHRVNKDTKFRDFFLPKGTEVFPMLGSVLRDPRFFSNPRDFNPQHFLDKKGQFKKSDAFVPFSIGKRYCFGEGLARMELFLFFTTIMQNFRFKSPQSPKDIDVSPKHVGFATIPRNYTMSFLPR
Description: (§1) Inhibitory effect of plant extracts, fractions, subfractions and constituents was determined by inhibition assay on CYP2A6- and CYP2A13-mediated coumarin 7-hydroxylation. The recombinant human CYP2A6, CYP2A13 and rat NADPH-dependent cytochrome P450 oxidoreductase (CYPOR) proteins were expressed, purified, according to the methods previously described. […] Rate of 7-hydroxycoumarin product formation was measured on spectrofluorometer (Shimadzu, Kyoto, Japan) at λex = 355 nm, λem = 460 nm. Inhibition effects were determined by incubation with extracts, fractions or purified compounds with coumarin substrate in the reaction mixture and calculated as per cent relative inhibition compared with vehicle control reaction[20] and IC50 values were calculated using GraphPad Prism 5 (GraphPad Software Inc., La Jolla, CA).
(§2) MBI requires NADPH and time to generate reactive intermediate as inhibitor and ultimately inactivates the enzyme. MBI was evaluated by pre-incubation with each test inhibitor in the reaction at different time periods (0, 10, 20 and 30 min) in the presence of NADPH for time-dependent assay, as described. The apparent inactivation constants, KI and Kinact, were obtained from double reciprocal plots of kobs versus inhibitor concentrations by linear regression analysis on GraphPad Prism 5. Methoxsalen was used as a control mechanism-based inhibitor for time- and NADPH-dependent inhibition assays.

[4] = target: T2, CYP2A13; assay: Mechanism-based (time- and NADPH-dependent) inactivation of CYP2A13; type: biochemical; conditions: pre-incubation 0-30 min with NADPH; for KI (inactivation): read-out: CYP2A13 KI (inactivation constant)
Description: as §2

[5] = target: T2, CYP2A13; assay: Effects of trapping agents and dialysis on inactivation of CYP2A13; type: biochemical; conditions: CYP2A13 inhibition reaction mixture, probe coumarin, compound 5 µM
Description: as §2
(§3) To explore whether inactivation of CYP2As by thiophenes 9–11 and of CYP2A13 by hirsutinolides 5-8 could be reversed, the removal of reversible inhibitory compounds by dialysis and addition of trapping agents (GSH, semicarbazide, catalase or potassium ferricyanide) in the inhibition reaction mixture were performed. […] Similarly, mechanism-based inactivation of both CYP2A6 and CYP2A13 by thiophenes 9–11 could not be reversed (Table 3).

[6] = target: T1, CYP2A6; assay: Mechanism-based (time- and NADPH-dependent) inactivation of CYP2A6; type: biochemical; set-up: made in house; conditions: human, recombinant human CYP2A6, probe coumarin, pre-incubation 0-30 min with NADPH; for KI (inactivation): read-out: CYP2A6 KI (inactivation constant)
Description: as §2

[7] = target: T1, CYP2A6; assay: Inhibition of CYP2A6-mediated coumarin 7-hydroxylation, enzymatic reconstitution assay; type: biochemical; set-up: made in house; conditions: for Ki: coumarin 0–40 µM
Description: as §1, §2

[8] = target: T1, CYP2A6; assay: Effects of trapping agents and dialysis on inactivation of CYP2A6; type: biochemical; set-up: made in house; conditions: CYP2A6 inhibition reaction mixture, probe coumarin, compound 5 µM
Description: as §2, §3

[9] = target: T2, CYP2A13; set-up: method as in PMID 23903410, PMID 17672516; conditions: literature values; cited from earlier work
[10] = target: T1, CYP2A6; conditions: read-out: inactivation kinetic values (KI) against CYP2A6; literature values; cited from earlier work
[11] = 10-min pre-incubation in the presence of NADPH, read-out: IC50 CYP2A6 Pre-incubation
[12] = coincubation, coumarin 2 µM, read-out: IC50 CYP2A6 Coincubation
[13] = 10-min pre-incubation in the presence of NADPH, read-out: IC50 CYP2A13 Pre-incubation
[14] = coincubation, coumarin 2 µM, read-out: IC50 CYP2A13 Coincubation
[15] = read-out: Per cent remaining activity, 70 μM K3Fe(CN)6
[16] = read-out: Per cent remaining activity, 2 mM GSH
[17] = read-out: Per cent remaining activity, 5 mM semicarbazide
[18] = read-out: Per cent remaining activity, 2000 U catalase
[19] = read-out: Per cent remaining activity, Dialysis (+) NADPH
[20] = read-out: Per cent remaining activity, Dialysis (−) NADPH
[21] = read-out: Per cent remaining activity, Pre-incubation

IC50 [3, 13]: 170 ± 10 nM | IC50 [3, 14]: 180 ± 20 nM | Ki [3]: 70 ± 10 nM
Molecule: O=c1cc(-c2ccc(O)c(O)c2)oc2cc(O)cc(O)c12 [Luteolin 2, luteolin]
IC50 [1, 11]: 1260 ± 70 nM | IC50 [1, 12]: 1380 ± 180 nM | Ki ([1]; coumarin 0–40 µM): 800 ± 60 nM | CYP2A6 Mode of inhibition [1]: Competitive^b | inhibition of CYP2A6-mediated nicotine metabolism [2]: showed inhibition

Molecule: CC#CC#Cc1ccc(C#CC(O)COC(C)=O)s1 (stereo not drawn) [Thiophene 9, 2-(penta-1,3-diyn-1-yl)-5–(4-acetoxy-3-hydroxybuta-1-yn-1-yl) thiophene]
kinact [4]: 0.00133 s⁻¹ | KI (inactivation) [4]: 970 ± 40 nM | activity at 5 µM [5, 15]: 24.9 ± 3.95% | activity at 5 µM [5, 16]: 23.2 ± 3.38% | activity at 5 µM [5, 17]: 23.2 ± 3.38% | activity at 5 µM [5, 18]: 22.1 ± 2.39% | activity at 5 µM [5, 19]: 20.9 ± 0.24% | activity at 5 µM [5, 20]: 85.3 ± 4.98% | activity at 5 µM [5, 21]: 29 ± 4.57% | kinact [6]: 0.00167 s⁻¹ | KI (inactivation) [6]: 880 ± 90 nM | CYP2A13 Mode of inhibition [3]: Mixed type | IC50 [3, 13]: 2290 ± 340 nM | IC50 [3, 14]: 6180 ± 280 nM | Ki [3]: 2960 ± 100 nM | CYP2A6 Mode of inhibition [7]: Mixed type | IC50 [7, 11]: 2120 ± 190 nM | IC50 [7, 12]: 6430 ± 1290 nM | Ki [7]: 3230 ± 430 nM | activity at 5 µM [8, 15]: 22.7 ± 1.58% | activity at 5 µM [8, 16]: 21.6 ± 1.97% | activity at 5 µM [8, 17]: 26.8 ± 2.39% | activity at 5 µM [8, 18]: 26.9 ± 3.07% | activity at 5 µM [8, 19]: 20.1 ± 5.21% | activity at 5 µM [8, 20]: 89.3 ± 7% | activity at 5 µM [8, 21]: 30.1 ± 3.7%

Molecule: CC#Cc1ccc(C#CC#CC(O)COC(C)=O)s1 (stereo not drawn) [Thiophene 10, 2-(prop-1-inyl)-5–(6-acetoxy-5-hydroxyhexa-1,3-diinyl) thiophene]
kinact [4]: 0.001 s⁻¹ | KI (inactivation) [4]: 860 ± 90 nM | activity at 5 µM [5, 15]: 26.9 ± 1.75% | activity at 5 µM [5, 16]: 27 ± 8.11% | activity at 5 µM [5, 17]: 27 ± 8.11% | activity at 5 µM [5, 18]: 22.2 ± 2.38% | activity at 5 µM [5, 19]: 21.4 ± 3.95% | activity at 5 µM [5, 20]: 93 ± 6.58% | activity at 5 µM [5, 21]: 28.9 ± 1.25% | kinact [6]: 0.00183 s⁻¹ | KI (inactivation) [6]: 1010 ± 70 nM | CYP2A13 Mode of inhibition [3]: Mixed type | IC50 [3, 13]: 1150 ± 880 nM | IC50 [3, 14]: 2940 ± 10 nM | Ki [3]: 1120 ± 90 nM | CYP2A6 Mode of inhibition [7]: Mixed type | IC50 [7, 11]: 2970 ± 10 nM | IC50 [7, 12]: 4440 ± 140 nM | Ki [7]: 2070 ± 230 nM | activity at 5 µM [8, 15]: 19.2 ± 1.83% | activity at 5 µM [8, 16]: 28.5 ± 1.72% | activity at 5 µM [8, 17]: 21.1 ± 3.31% | activity at 5 µM [8, 18]: 24.1 ± 4.49% | activity at 5 µM [8, 19]: 23.7 ± 2.06% | activity at 5 µM [8, 20]: 87.5 ± 9.25% | activity at 5 µM [8, 21]: 35.2 ± 3.22%

Molecule: S=C=NCCCCCCc1ccccc1 [phenylhexyl isothiocyanate]
KI values against CYP2A13 [9]: 1100 nM

Molecule: S=C=NCCCc1ccccc1 [phenylpropyl isothiocyanate]
KI values against CYP2A13 [9]: 140 nM

Molecule: C/C=C(\C)CC/C=C(\C)C(=O)OCC(C)(C)CC1=C(O)C(=O)c2ccccc2C1=O [rhinacanthin-C, reference compound]
KI values against CYP2A13 [9]: 1680 nM | KI (inactivation) [10]: 970 nM

Molecule: CC(C)(C)N=C=S [tert-butyl isothiocyanate]
KI values against CYP2A13 [9]: 4300 nM

Molecule: rhinacanthin-A [reference compound]
KI values against CYP2A13 [9]: 420 nM | KI (inactivation) [10]: 690 nM

Molecule: rhinacanthin-B [reference compound]
KI values against CYP2A13 [9]: 160 nM | KI (inactivation) [10]: 440 nM
